This is an account of results in article PMC7481482, “Development of Anthraquinone Derivatives as Ectonucleoside Triphosphate Diphosphohydrolase (NTPDase) Inhibitors With Selectivity for NTPDase2 and NTPDase3” (Frontiers in Pharmacology, 2020).

One assay has as its system rat NTPDase1. The following applies: rat enzyme; ref Baqi et al., 2009b; cited from earlier work.
Another assay concerns rat NTPDase3. The following applies: rat enzyme; ref Baqi et al., 2009b; cited from earlier work.
A further assay has as its system rat NTPDase2. The settings on record: rat enzyme; ref Baqi et al., 2009b; cited from earlier work.
A further assay deals with T1, human NTPDase1 (Homo sapiens, UniProt P49961).
T1 construct: expressed in transfected cells; host or cells: COS-7 cells (membrane preparation)
T1 sequence (P49961 1-510): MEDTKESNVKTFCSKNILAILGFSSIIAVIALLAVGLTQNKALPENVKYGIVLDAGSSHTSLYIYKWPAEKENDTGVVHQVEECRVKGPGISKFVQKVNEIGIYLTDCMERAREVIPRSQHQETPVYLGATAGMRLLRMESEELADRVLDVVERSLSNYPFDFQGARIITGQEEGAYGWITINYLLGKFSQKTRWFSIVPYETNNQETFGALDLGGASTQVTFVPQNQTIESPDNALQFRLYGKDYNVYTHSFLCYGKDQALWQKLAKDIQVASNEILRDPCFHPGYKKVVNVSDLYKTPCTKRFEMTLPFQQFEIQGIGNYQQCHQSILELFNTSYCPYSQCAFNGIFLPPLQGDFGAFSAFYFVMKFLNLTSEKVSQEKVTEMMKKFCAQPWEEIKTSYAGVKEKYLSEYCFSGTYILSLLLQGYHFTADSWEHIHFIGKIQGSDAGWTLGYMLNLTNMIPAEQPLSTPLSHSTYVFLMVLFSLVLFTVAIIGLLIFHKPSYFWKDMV
Kind of assay: Malachite green assay, human NTPDase1. It is filed as biochemical. The settings on record: 2 μM compound; 50 µM ATP; COS-7 membrane preparation; read-out: % inhibition at 2 μM concentration, NTPDase1. The gist of the method: (§1)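 COS-7 membranes expressing each NTPDase were preincubated with compound for 5 min at 37 °C, pH 7.4 HEPES buffer with 2 mM CaCl2/1 mM MgCl2. ATP was 50 µM for NTPDase1 and 100 µM for -2, -3, -8; reaction ran 15 min at 37 °C. Released phosphate read by malachite green at 600 nm; screen at 2 µM, IC50 over 0.03–30 µM in 2% DMSO.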

In the next assay the target is T2, human NTPDase3 (Homo sapiens, UniProt O75355).
T2 construct: expressed in transfected cells; host or cells: COS-7 cells (membrane preparation)
T2 sequence (O75355 1-529): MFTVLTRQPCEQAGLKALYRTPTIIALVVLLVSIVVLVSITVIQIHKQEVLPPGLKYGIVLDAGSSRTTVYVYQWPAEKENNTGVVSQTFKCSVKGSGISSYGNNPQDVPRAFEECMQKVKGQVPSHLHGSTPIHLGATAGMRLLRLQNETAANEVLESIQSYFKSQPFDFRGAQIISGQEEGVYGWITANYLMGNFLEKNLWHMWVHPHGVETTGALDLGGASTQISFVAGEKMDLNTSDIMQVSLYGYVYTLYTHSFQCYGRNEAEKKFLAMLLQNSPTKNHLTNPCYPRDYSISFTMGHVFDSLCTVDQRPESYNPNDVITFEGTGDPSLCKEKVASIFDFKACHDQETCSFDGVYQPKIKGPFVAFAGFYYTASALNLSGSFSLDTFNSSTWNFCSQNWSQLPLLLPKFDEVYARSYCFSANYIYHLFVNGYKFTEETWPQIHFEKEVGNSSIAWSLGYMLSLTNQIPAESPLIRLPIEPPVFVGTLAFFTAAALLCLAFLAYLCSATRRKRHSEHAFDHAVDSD
As to the kind of experiment: Malachite green assay, human NTPDase3. It is filed as biochemical. The following applies: 2 μM compound; 100 µM ATP; COS-7 membrane preparation; read-out: % inhibition at 2 μM concentration, NTPDase3. The essentials: as §1

A value given as a limit tells only on which side of the number the result lay.

Broadly, the IC50 is the concentration that inhibits the measured activity by half. Turning to `Nc1c(S(=O)(=O)O)cc(Nc2cccc3ccccc23)c2c1C(=O)c1ccccc1C2=O` [Compound 15], the IC50 is greater than 100 µM with rat NTPDase1, 1.5 µM in the assay with rat NTPDase3 and greater than 100 µM with rat NTPDase2. The inhibition at 2 µM was -19% at human NTPDase1 and -4% at human NTPDase3.
